Drawing on PubChem BioAssay (NCI), this text covers GI50 and TGI for eight molecules.

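Cultured in 96-well plates, cells were exposed to test compound for 48 hours across five concentrations. Here, GI50 denotes the concentration required for 50% inhibition of growth. At the TGI there is no net growth.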 Where a SMILES comes first, the peptide text is derived from it. Bridges are numbered along the chain shown (N, C = ends). [ ]: non-standard residue; d: D form. ξ: configuration not given here. ξThr(3R) = C[C@@H](O)C(N)C(=O)O; S5 = C=CCCC[C@](C)(N)C(=O)O

Among the test systems are HCT-116 colon; HOP-62 NSCLC; HT29 colon; K-562 leukemia; NCI-H226 lung; NCI-H23 lung; NCI/ADR-RES ovarian; OVCAR-3 ovarian; SK-OV-3 ovarian; U251 CNS.
Common to all, as to assay: inhibition of tumour cell growth, NCI panel, 48 h

On to `COc1cccc(C2=C(c3cn(C)c4cc(F)ccc34)C(=O)NC2=O)c1`, for which the GI50 is 8.59 µM with HCT-116 colon; above 25 µM in the assay on HOP-62 NSCLC; 8.35 µM in the assay with HT29 colon; 12.4 µM with K-562 leukemia; above 18.8 µM in the assay on NCI-H226 lung; above 25 µM with NCI-H23 lung. The GI50 in the assay with NCI/ADR-RES ovarian is 18.2 µM; in the assay on OVCAR-3 ovarian it was above 18.7 µM; in the assay on SK-OV-3 ovarian, above 25 µM; with U251 CNS, above 17.2 µM. Besides, the TGI in the assay on HCT-116 colon, in the assay on HOP-62 NSCLC, with HT29 colon, in the assay on K-562 leukemia, with NCI-H226 lung and with NCI-H23 lung was above 25 µM each time. Further, the TGI in the assay on NCI/ADR-RES ovarian, with OVCAR-3 ovarian, with SK-OV-3 ovarian and in the assay on U251 CNS was above 25 µM each time.
Regarding `COc1cccc(/C=C/c2ccnc3ccccc23)c1OC`, the TGI with HCT-116 colon, in the assay on HOP-62 NSCLC, with HT29 colon, in the assay on K-562 leukemia, in the assay on NCI-H226 lung and in the assay on NCI-H23 lung was above 10 µM throughout. For the same molecule, the TGI in the assay on NCI/ADR-RES ovarian, in the assay with OVCAR-3 ovarian, with SK-OV-3 ovarian and in the assay with U251 CNS was above 10 µM in each case.
In the case of `NC(Cc1c[nH]c2ccc(F)cc12)C(=O)O` (stereo not given), the GI50 in the assay on HCT-116 colon is 853 µM; with HOP-62 NSCLC, 480 µM; in the assay on HT29 colon it was 911 µM; in the assay on K-562 leukemia it was 887 µM; in the assay with NCI-H226 lung, 626 µM; in the assay with NCI-H23 lung, 1540 µM. Further, the GI50 is 675 µM in the assay on NCI/ADR-RES ovarian, 724 µM with OVCAR-3 ovarian, 451 µM with SK-OV-3 ovarian and 728 µM in the assay on U251 CNS. Besides, the TGI is above 2500 µM in the assay on HCT-116 colon; 2160 µM in the assay on HOP-62 NSCLC; above 2500 µM in the assay with HT29 colon; above 2500 µM in the assay on K-562 leukemia; above 2500 µM with NCI-H226 lung; above 2500 µM in the assay with NCI-H23 lung. Further, the TGI is above 2500 µM in the assay with NCI/ADR-RES ovarian, above 2500 µM with OVCAR-3 ovarian, 1370 µM in the assay on SK-OV-3 ovarian and above 2500 µM with U251 CNS.
In the case of `Cc1ccc(-c2nc3cc(Cl)c(Cl)cc3nc2C#N)cc1`, the GI50 in the assay on HCT-116 colon was 90.3 µM; with HOP-62 NSCLC it was above 100 µM; in the assay with HT29 colon it was above 100 µM; with K-562 leukemia it was above 100 µM; in the assay with NCI-H226 lung, above 100 µM; with NCI-H23 lung, above 100 µM. In addition, the GI50 is 81.2 µM with NCI/ADR-RES ovarian, above 100 µM with OVCAR-3 ovarian, above 100 µM with SK-OV-3 ovarian and above 100 µM in the assay on U251 CNS. In addition, the TGI in the assay on HCT-116 colon, with HOP-62 NSCLC, with HT29 colon, with K-562 leukemia, in the assay on NCI-H226 lung and in the assay with NCI-H23 lung was above 100 µM throughout. The TGI in the assay with NCI/ADR-RES ovarian, with OVCAR-3 ovarian, in the assay with SK-OV-3 ovarian and with U251 CNS was above 100 µM in each case.
As to `CCN(CC)c1ccc(C2NC(=O)c3ccccc3N2)cc1` (stereo not given), the TGI with HCT-116 colon is above 100 µM; in the assay with HOP-62 NSCLC it was above 100 µM; with HT29 colon it was above 20.8 µM; with K-562 leukemia it was above 100 µM; in the assay with NCI-H226 lung it was above 100 µM; with NCI-H23 lung, above 100 µM. Further, the TGI with NCI/ADR-RES ovarian, in the assay with OVCAR-3 ovarian, in the assay on SK-OV-3 ovarian and in the assay with U251 CNS was above 100 µM throughout.
As for `CC(=O)N[C@H](C(=O)N[C@@H](CCCNC(=N)N)C(=O)N[C@@H](CCCCN)C(=O)N[C@@H](CCCNC(=N)N)C(=O)NC(C(=O)N[C@@H](CC(C)C)C(=O)N[C@@H](CCCNC(=N)N)C(=O)N[C@@]1(C)CCC/C=C\CCC[C@@](C)(C(=O)N[C@@H](CCCNC(=N)N)C(=O)N[C@@H](CCC(=O)O)C(=O)N[C@@H](CC(C)C)C(=O)N[C@H](C(=O)N[C@@H](CCC(=O)O)C(N)=O)C(C)C)NC(=O)[C@H](CCC(N)=O)NC(=O)[C@H](CC(C)C)NC(=O)[C@H](CC(C)C)NC1=O)[C@@H](C)O)C(C)C` (stereo partly drawn) (Ac-VRKR[ξThr(3R)]LR[S5]LLQ[S5]RELVE-NH2; staple (Z) 8-12), the GI50 was 8.87 µM in the assay on HCT-116 colon; 3.24 µM in the assay on HOP-62 NSCLC; 7.56 µM with HT29 colon; 9.12 µM in the assay with K-562 leukemia; 5.31 µM in the assay on NCI-H226 lung; 5.26 µM with NCI-H23 lung. Moreover, the GI50 with NCI/ADR-RES ovarian was 7.9 µM; with OVCAR-3 ovarian, 8.16 µM; in the assay on SK-OV-3 ovarian it was 5.55 µM; with U251 CNS, 2.99 µM. Moreover, the TGI came out at 17.1 µM in the assay with HCT-116 colon; 11.8 µM in the assay on HOP-62 NSCLC; 16.4 µM in the assay on HT29 colon; 19.7 µM with K-562 leukemia; 14.8 µM with NCI-H226 lung; 13.3 µM with NCI-H23 lung. Moreover, the TGI with NCI/ADR-RES ovarian turned out to be 16.7 µM; in the assay with OVCAR-3 ovarian, 15.7 µM; in the assay with SK-OV-3 ovarian it was 14.9 µM; with U251 CNS, 10.4 µM.
In the case of `CCCCN=C(N)c1ccc(N2CCCN(c3ccc(C(N)=NCCCC)cc3)CC2)cc1`, the GI50 in the assay on HCT-116 colon was 21 µM; in the assay with HOP-62 NSCLC, 15.8 µM; in the assay with HT29 colon, 10.7 µM; in the assay with K-562 leukemia, 3.69 µM; in the assay with NCI-H226 lung it was 1.66 µM; in the assay with NCI-H23 lung, 5.67 µM. Moreover, the GI50 in the assay with NCI/ADR-RES ovarian was above 100 µM; in the assay with OVCAR-3 ovarian, 8.73 µM; in the assay with SK-OV-3 ovarian, above 100 µM; with U251 CNS, 4.81 µM. The TGI in the assay on HCT-116 colon was above 100 µM; in the assay on HOP-62 NSCLC, above 90.1 µM; in the assay with HT29 colon, above 59.7 µM; in the assay on K-562 leukemia it was above 100 µM; in the assay on NCI-H226 lung, 99.8 µM; in the assay on NCI-H23 lung, above 100 µM. The TGI with NCI/ADR-RES ovarian was above 100 µM; in the assay with OVCAR-3 ovarian, above 81.7 µM; in the assay on SK-OV-3 ovarian, above 100 µM; in the assay with U251 CNS, above 100 µM.
Turning to `COc1ccc(Cn2cc3c(c2)-c2oncc2CC3)cc1OC`, the GI50 in the assay with HCT-116 colon was 0.193 µM; with HOP-62 NSCLC, 0.259 µM; in the assay with HT29 colon, 0.153 µM; in the assay on K-562 leukemia, 0.163 µM; in the assay on NCI-H226 lung it was 0.704 µM; in the assay on NCI-H23 lung, 0.2 µM. Further, the GI50 was 0.132 µM in the assay with NCI/ADR-RES ovarian, 0.134 µM with OVCAR-3 ovarian, 0.152 µM with SK-OV-3 ovarian and 0.211 µM with U251 CNS. Besides, the TGI in the assay on HCT-116 colon was 8.57 µM; in the assay with HOP-62 NSCLC it was above 50 µM; in the assay on HT29 colon, 1.28 µM; in the assay on K-562 leukemia, above 16.6 µM; in the assay with NCI-H226 lung, above 50 µM; with NCI-H23 lung it was above 25.3 µM. Moreover, the TGI with NCI/ADR-RES ovarian is 1.38 µM; in the assay with OVCAR-3 ovarian it was 0.35 µM; with SK-OV-3 ovarian it was 1.14 µM; with U251 CNS, above 28.1 µM.
